One data set has as its system mice. Briefly: Toxicity / maximum tolerated dose in mice. The following applies: mice.
For data set [1], the system named is MDA-MB-435 cells. The data set is described as follows: Proliferation (CFDA-AM esterase assay) of cells grown on SISgel, plastic or Matrigel, 48 h drug exposure. It is filed as cell-based. The conditions noted are these: for EC50: Homo sapiens; for SI (EC50-P/EC50-S): ratio of EC50 on plastic versus SISgel. The text has this:
(§1) The libraries were obtained from the NCI (Diversity Library I) comprised of 2,918 compounds and a 10,000 compound diversity library from ChemBridge, Inc. (DiverSet-EXP). The NCI library is no longer available in the form used here, but how it was constructed is described (http://dtp.nci.nih.gov/branches/dscb/diversity_explanation.html). The ChemBridge library is a subset (Set Code NM1024) of the full 50,000 compound library (http://www.chembridge.com/screening_libraries/diversity_libraries/). Compounds were diluted to 100 μM before use. SISgel was prepared as described previously from powdered porcine small intestine submucosa obtained from Cook Biotech (W. Lafayette, IN). It is a natural product that is used extensively in tissue engineering as a bioscaffold. J82 bladder cancer cells and other cell lines were obtained from the ATCC (Bethesda, MD). The basic principle is that cells grown on any ECM are, in general, expected to show higher resistance to anticancer compounds than when grown on plastic. Therefore, compounds that show a higher activity toward cancer cells on a normal ECM than on a plastic surface would be candidates to target suppressed, micrometastatic cells. Efficacy in vitro was assessed by plating 30,000 cells in 50 μL of high glucose DMEM with penicillin-streptomycin and 10 % fetal calf serum on SISgel in a 96-well plate containing 50 μL of gelled SISgel per well. Cells were allowed to attach and assume the SISgel phenotype for 48 h. A matching plate without SISgel was prepared 24 h later by pipetting 3,000 cells in 100 μL of high glucose DMEM with penicillin-streptomycin and 10 % fetal calf serum into each well of 96 well plate. The cells were allowed to attach and grow for 24 h. These numbers of cells gave approximately equal replication rates at the time drug was added for cells grown on the plastic surface or SISgel as determined by the fraction of S-phase cells identified by flow cytometry. The cells were exposed to drug in fresh medium for 48 h, at which time the cell number was determined using the CFDA-AM cellular esterase proliferation assay (cat. #C1354, Life Technologies). For screening the results are reported as the ratio of cell count of cells on the plastic surface to the cell count on SISgel. An initial difference of 1.5 fold identified potential hits. All potential hits were confirmed in triplicate. Those compounds that replicated were confirmed by a full dose–response study yielding an EC50 using five wells per drug concentration. Data were analyzed using nonlinear regression to a sigmoid curve with Prism 4 (GraphPad Software, Inc., LaJolla, CA). Potential hits that were confirmed by dose–response using J82 were also tested with MDA-MB-435 breast cancer, PC-3 metastatic prostate cancer, Capan1 pancreatic cancer and the J82 bladder cancer cell lines.

The nature of the next data set: in vivo. The following applies: mouse.
The subject of a further data set is J82 (bladder). Briefly: Proliferation EC50 on SISgel vs monolayer. It counts as cell-based. The conditions noted are these: n = 6-8.
Source text: as §1

Data set [2] deals with MDA-MB-435 cells. Briefly: Western blot of protein levels after treatment. It counts as cell-based. The method, then: Protein content of selected proteins identified by reversed phase protein array (see supplementary materials) as being involved mechanistically in the response to DT320 was assayed by Western blot as described using the following antibodies. The following antibodies were purchased from Cell Signaling Technology (Beverly, MA) and diluted per manufacturer’s directions: Rabbit mAb Anti-Phospho-AKT (Ser473) (D9E) XP® #4060, Rabbit mAb anti-p38 MAPK (D13E1) XP® #8690, Mouse mAb anti-Phospho-SAPK/JNK (Thr183/Tyr185) (G9) #9255, Rabbit mAb anti-Phospho-CHK1 (Ser345) (133D3) #2348, Rabbit polyclonal anti-Phospho-CHK2 (Thr68) Antibody #2661, Rabbit polyclonal anti-BAX Antibody #2772, Rabbit polyclonal anti-Vinculin Antibody #4650, Mouse mAb anti-Cyclin D1 (DCS6) #2926, Rabbit mAb anti-Cyclin E2 (D52F9) b #3741, […], Mouse mAb anti-Cyclin B1 (V152) #4135, Rabbit mAb anti-cleaved PARP (Asp214) (D64E10) XP® #5625, Rabbit mAb anti-cleaved Caspase-3 (Asp175) (5A1E) #9654, Rabbit mAb anti-Nanog (D73G4), #4903; Rabbit mAb anti-Oct4 (C52G3) #2890; and Rabbit mAb anti-Sox2 (D6D9) #3579. Specificity of each antibody is illustrated on the company’s web page. For negative controls, pre-immune rabbit IgG was used. No signal was detected in the control IgG samples. No intensities or contrast were modified, but the appropriate bands were cut out using PhotoShop to prepare composite gel images.
To elucidate the mechanism of DT310 and DT320, cell cycle analysis and Western blotting was performed. The proteins for Western blot were selected from preliminary results using reverse phase protein array (RPPA) for DT320 and DT321 treated MDA-MB-435 and T24 cells. […] Proteins within these clusters showing the largest differences in protein expression and that were related to known anticancer drug action were confirmed by Western blot. Docetaxel was used as a positive control because it is known to induce a cell cycle arrest and apoptosis signature.
For orientation: A western blot detects proteins with antibodies after separation by electrophoresis.

Another data set has as its system 4T1 Luc2-GFP cells. The data set is described as follows: Orthotopic 4T1 syngeneic model of triple-negative breast cancer with natural lung metastasis. It is filed as in vivo, BALB/c mice. How it is done: 4T1 Luc2-GFP cells (PerkinElmer, Waltham, MA) were cultured in DMEM high glucose media with 2 mM pyruvate, 2 mM glutamine, 2 % Pen/Strep and 10 % Cosmic Calf Serum (Mediatech, Manassas, VA). To prepare cells for injection they were removed from flasks, counted using the TC10 counting system (BioRad, Hercules, CA) and checked for viability. Cells were then washed with PBS, pelleted and taken up at a concentration of 75,000 cells/ml; 100 μl of cell suspension (7,500 cells) was injected subcutaneously (bevel side up) into mammary fat pad #4 of 8 weeks old female BALB/c mice (NCI National Laboratory Frederick/Charles River animal production program). All animals were weighed and tumors were measured using calipers three times weekly. Beginning one week after implantation, which is when micrometastatic cells begin to arrive in the lungs, animals were treated three times per week with intraperitoneal DT310 or DT320 at their NOAEL dose of 75 mg/kg three times week dissolved in saline or by osmotic pump. The osmotic pumps (Alzet #2004) delivered an NOAEL dose of 23.4 and 26.7 μg/h of DT310 and DT320, respectively, for 4 weeks and were implanted as directed subcutaneously posterior to scapulae. Docetaxel was delivered once weekly intraperitoneally at its MTD of 15 mg/kg and doxorubicin delivered once weekly at its MTD of 1 mg/kg in 5 % N-Methyl-2-pyrrolidone, 5 % Solutol HS, and 90 % saline. GFP positive cells were imaged with excitation of GFP emission using a Leica Model Z16 APO fluorescence microscope equipped for a wide field, a large depth of field and 0.57–9.2X zoom capability. GFP-positive objects were counted and scored as to whether they were […], clumps of less than ten cells without a visible vasculature, as determined by co-injection of tetramethylrhodamine labeled dextran (2 million MW).

Another data set relates to Capan-1 (pancreatic). Briefly: Proliferation EC50 on SISgel vs monolayer. The following applies: Homo sapiens, n = 6-8. It is filed as cell-based.
Source text: as §1

The next data set has as its system MDA-MB-435-GFP cells. Briefly: Flank xenograft model of ECM-suppressed cells co-injected with SISgel. The following applies: 75 mg/kg twice weekly; 6 flanks. It is filed as in vivo, nu/nu mice. How it is done: The efficacy of DT320 was assessed using a flank xenograft model of ECM-suppressed cancer cells that we developed, as well as an orthotopic model of “triple-negative” breast cancer. All animal protocols were reviewed and approved by the OUHSC Institutional Animal Care and Use Committee according to criteria established by the NIH Office of Laboratory Animal Welfare, and animals were housed 5 per cage with enrichment (tubes) and wood chips in the AALAC-accredited OUHSC Animal Facility with a 12 h light/dark cycle. Animals had access to water and food ad libatum. Animals were monitored daily by trained facility personnel. In the flank model, GFP-labeled cells were co-injected with SISgel, which produces a suppressed, normalized phenotype that persists after the SISgel is resorbed, but which can re-emerge into active tumor growth after 30–60 days. Animals were all female nu/nu mice (NCI National Laboratory Frederick/Charles River animal production program). An optimized number of 5 × 10^5 GFP-labeled MDA-MB-435 cells in 100 μL DMEM medium, without additives, were mixed with 100 μL of SISgel and were kept on ice until injection to prevent polymerization of the SISgel. […] The cells injected into the flanks remained as a non-growing spot, as assessed by fluorometry of the spots and the lack of mitoses seen in tissue sections, for about 3–5 weeks before some began resuming malignant growth. […]

Setting [3] is: MDA-MB-435 cells on SISgel, read-out: EC50-S.
[4] abbreviates: MDA-MB-435 cells on plastic, read-out: EC50-P.

Usually EC50 stands for the concentration that produces a half-maximal response.

Entries after “also recorded” stand apart in the source; their conditions may differ. Where two headings read alike, the source gives them in different places. Bounds are passed on as bounds.

Regarding `COc1ccc(C2C3=C(CCCC3=O)NC3=C2C(=O)c2ccccc23)c(OC)c1OC` (centres unmarked) [DT340, 10-(2,3,4-trimethoxyphenyl)-6,7,8,10-tetrahydro-5H-indeno[1,2-b]quinoline-9,11-dione], in the data set on mice, the “doses at which highly toxic to mice” value is “less than 10 mg/kg” and the “toxicity in mice” value is “dose-limiting toxicity”. In the data set with MDA-MB-435 cells [1] (setting [3]), the EC50 is 117 µM. Also, the EC50 with MDA-MB-435 cells [1] (setting [4]) came to 219 µM. Besides, the “SI (EC50-P/EC50-S)” value with MDA-MB-435 cells [1] was 1.9. Moreover, the MTD in the data set “in vivo” is less than 10 mg/kg.
In the case of `COc1ccc(CC(=O)Oc2ccc3c(c2)C(C)=CC(C)(C)N3)cc1` [DT350, 2,2,4-trimethyl-1,2-dihydro-6-quinolinyl (4-methoxyphenyl)-acetate], the “doses at which highly toxic to mice” value with mice is recorded as “less than 10 mg/kg”. Further, the “toxicity in mice” value with mice was “dose-limiting toxicity”. In addition, the EC50 in the data set with MDA-MB-435 cells [1] (setting [3]) came out at 270 µM; with MDA-MB-435 cells [1] (setting [4]), 1830 µM. Also, the “SI (EC50-P/EC50-S)” value with MDA-MB-435 cells [1] is given as 6.8. For the same compound, the MTD in the data set “in vivo” was less than 10 mg/kg.
`N.N.[Cl][Pt][Cl]` [cisplatin, reference compound]: the EC50 with J82 (bladder) (J82 monolayer, read-out: EC50 Monolayer) is 102 ± 10.2 µM; in the data set with J82 (bladder) (J82 on SISgel, read-out: EC50 SISgel), more than 300 µM.
Regarding `CC(=O)O[C@@]12CO[C@@H]1C[C@H](O)[C@@]1(C)C(=O)[C@H](O)C3=C(C)[C@@H](OC(=O)[C@H](O)[C@@H](NC(=O)OC(C)(C)C)c4ccccc4)C[C@@](O)([C@@H](OC(=O)c4ccccc4)[C@H]21)C3(C)C` [docetaxel], in the data set on MDA-MB-435 cells [2], the CHK1 expression result is listed as “neither of the DT compounds nor docetaxel induced CHK1”, the “Cyclin A1 (CCNA1) expression” value was “sharply down-regulate”, the “Cyclin D1 (CCND1) expression” value is reported as “down-regulated” and the “cyclin B1 (CCNB1) expression” value was “down-regulated”. Besides, the pSAP/JNK expression entry in the data set on MDA-MB-435 cells [2] is listed as “not”. For the same compound, the pAKT expression entry in the data set on MDA-MB-435 cells [2] (24 h) was “did not”. Besides, the primary tumor growth result in the data set with 4T1 Luc2-GFP cells (administered i.p. at MTD) is “little effect”. In the data set on 4T1 Luc2-GFP cells (i.p. or osmotic pump), the “number of large multicellular micrometastases and vascularized macrometastases to the lung” value is “only minimal effects”. In “in vivo” (BALB/c, ip), the MTD was determined as 15 mg/kg.
On to `Nc1ccn([C@@H]2O[C@H](CO)[C@@H](O)C2(F)F)c(=O)n1` [gemcitabine, reference compound], for which the EC50 in the data set on Capan-1 (pancreatic) (Capan-1 monolayer, read-out: EC50 Monolayer) amounted to 78.2 ± 9.8 µM; in the data set with Capan-1 (pancreatic) (Capan-1 on SISgel, read-out: EC50 SISgel), 83.1 ± 10.7 µM. In addition, in the data set with MDA-MB-435-GFP cells, the “response of suppressed flank xenografts” value was “no response in all six flank xenografts; also recorded: remained present”.

Values taken from paper PMC4434572, “Identification of novel drugs to target dormant micrometastases” (BMC Cancer, 2015).
